# Laboratory results: US20050113413A1, “Naphthalene-1,5-disulfonic acid salts of a substituted 4-amino-1-(pyridylmethyl)piperidine compound” (priority 2003, published 2005)
# Tests used:
# [1] = target: T1, hM2 muscarinic receptor subtype (Homo sapiens, UniProt P08172); test: Radioligand binding assay ([3H]NMS displacement), hM2; details: [3H]NMS at 1 nM, CHO cell membranes, 60 minutes at 37° C.
# T1 construct: expressed in transfected cells; membranes prepared
# T1 sequence (P08172 1-466): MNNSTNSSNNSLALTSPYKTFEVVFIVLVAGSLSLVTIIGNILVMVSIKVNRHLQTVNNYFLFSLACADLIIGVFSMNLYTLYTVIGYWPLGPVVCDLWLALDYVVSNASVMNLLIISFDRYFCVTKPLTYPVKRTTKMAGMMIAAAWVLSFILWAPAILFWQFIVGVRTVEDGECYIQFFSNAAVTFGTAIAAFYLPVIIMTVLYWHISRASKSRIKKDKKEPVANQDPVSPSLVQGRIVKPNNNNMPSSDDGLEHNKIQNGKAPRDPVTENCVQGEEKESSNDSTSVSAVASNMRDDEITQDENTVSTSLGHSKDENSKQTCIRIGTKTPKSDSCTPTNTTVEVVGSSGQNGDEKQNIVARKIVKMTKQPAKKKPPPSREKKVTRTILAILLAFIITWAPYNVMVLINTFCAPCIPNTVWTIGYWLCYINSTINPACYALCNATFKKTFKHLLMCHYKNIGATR
# Procedure: (§1) CHO (Chinese hamster ovary) cell lines stabilely expressing cloned human hM1, hM2, hM3 and hM4 muscarinic receptor subtypes, respectively, were grown to near confluency in medium consisting of HAM's F-12 supplemented with 10% FBS (Fetal Bovine Serum) and 250 μg/mL Geneticin. The cells were grown in a 5% CO2, 37° C. incubator and lifted with dPBS+2 mM EDTA. Cells were collected by 5 minute centrifugation at 650×g, and cell pellets were either stored frozen at −80° C. or membranes were prepared immediately. For membrane preparation, cell pellets were resuspended in lysis buffer and homogenized with a Polytron PT-2100 tissue disrupter (Kinematica AG; 20 seconds×2 bursts). Crude membranes were centrifuged at 40,000×g for 15 minutes at 4° C. […] Protein concentration of the membrane suspension was determined by the method of Lowry, O. et al., (1951) Journal of Biochemistry: 193, 265. […]
# (§2) Radioligand binding assays were performed in 96-well microtiter plates in a total assay volume of 100 μL. […] Filter plates were rinsed three times with wash buffer (10 mM HEPES) to remove unbound radioactivity. […] The plates were then counted in a PerkinElmer Topcount liquid scintillation counter (PerkinElmer Inc., Wellesley, Mass.). Binding data were analyzed by nonlinear regression analysis with the GraphPad Prism Software package (GraphPad Software, Inc., San Diego, Calif.) using the one-site competition model. […]
# [2] = target: T2, hM3 muscarinic receptor subtype (Homo sapiens, UniProt P20309); test: Radioligand binding assay ([3H]NMS displacement), hM3 relative to hM2; details: ratio of Ki values
# T2 construct: expressed in transfected cells; membranes prepared
# Procedure: as §1, §2
# T2 sequence (P20309 whole entry): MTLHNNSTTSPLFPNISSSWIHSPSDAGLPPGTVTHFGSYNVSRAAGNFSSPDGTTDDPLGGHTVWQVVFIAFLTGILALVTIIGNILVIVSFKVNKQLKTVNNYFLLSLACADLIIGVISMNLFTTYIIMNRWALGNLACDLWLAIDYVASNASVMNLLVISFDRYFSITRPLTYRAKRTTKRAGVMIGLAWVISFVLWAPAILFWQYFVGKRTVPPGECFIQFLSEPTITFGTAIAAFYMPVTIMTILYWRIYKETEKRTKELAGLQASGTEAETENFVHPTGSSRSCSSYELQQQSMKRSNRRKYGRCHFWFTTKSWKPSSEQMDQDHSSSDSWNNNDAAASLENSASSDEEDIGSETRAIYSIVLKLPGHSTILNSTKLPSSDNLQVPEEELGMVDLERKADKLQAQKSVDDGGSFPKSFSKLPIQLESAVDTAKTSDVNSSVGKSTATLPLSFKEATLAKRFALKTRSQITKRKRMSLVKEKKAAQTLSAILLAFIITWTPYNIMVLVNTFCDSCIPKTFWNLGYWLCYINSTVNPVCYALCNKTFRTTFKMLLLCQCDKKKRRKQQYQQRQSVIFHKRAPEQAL
smiles,measurement,setting,value
COc1ccncc1CN1CCC(N(CCCCCCCN2CC[C@@H](C(C(N)=O)(c3ccccc3)c3ccccc3)C2)C(C)C)CC1 [Example 6],Ki,[1],< 1 nM
same,hM3/hM2 ratio,[2],greater than 40
